This note sets out measurements from ChEMBL document CHEMBL1201862, “PubChem BioAssay data set” (2004).

Test systems include K562; NCI-H460; HOP-62; TK-10; SF-268; LOX IMVI; NCI-H226; A549; HL-60; RPMI-8226; RXF 393; KM12; M19-MEL; SK-OV-3; ACHN; OVCAR-5; HOP-92; A498; BT-549; PC-3.
Common to all, as to assay: growth of human tumour cells (NCI), 48 h

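How tested: cells in 96-well plates exposed to compound for 48 hours at five concentrations. At the GI50, growth is halved.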 Calls of active or inactive are those of the source. Cut-off read from the data, not from the text of the source: active = GI50 up to about 1.1 µM and inactive = higher.

In the case of `COP1(=O)CC2C(Cl)(Cl)C2(C)C1` (stereo not drawn), the GI50 in the experiment with K562, in the experiment on NCI-H460, with HOP-62, in the experiment with TK-10, in the experiment with SF-268 and in the experiment on LOX IMVI was > 100 µM (inactive) throughout. Besides, the GI50 in the experiment with NCI-H226, in the experiment on A549, in the experiment with HL-60, with RPMI-8226, in the experiment on RXF 393 and with KM12 was > 100 µM (inactive) in each case. Also, the GI50 in the experiment with M19-MEL and in the experiment on SK-OV-3 was > 100 µM (inactive) in each case.

Turning to `CCCO/S(=N\S(=O)(=O)c1ccccc1)c1ccccc1[N+](=O)[O-]` (stereo not drawn), the GI50 in the experiment with K562, with NCI-H460, with HOP-62, in the experiment on ACHN, with SF-268 and in the experiment with LOX IMVI was > 100 µM (inactive) each time. Moreover, the GI50 with NCI-H226, in the experiment with A549, in the experiment on RPMI-8226, in the experiment on KM12, in the experiment with OVCAR-5 and in the experiment with M19-MEL was > 100 µM (inactive) in each case. Moreover, in the experiment with SK-OV-3, the GI50 was > 100 µM (inactive).

`C=C1CC/C=C(/C(=O)O)CC[C@H]2[C@@H]1CC2(C)C`: the GI50 in the experiment on K562 was > 100 µM (inactive); with HOP-92, 70 µM (inactive); with NCI-H460, > 100 µM (inactive); in the experiment with HOP-62 it was > 100 µM (inactive); in the experiment with TK-10, > 100 µM (inactive); with ACHN, > 100 µM (inactive). The GI50 with SF-268, in the experiment on LOX IMVI, with NCI-H226, in the experiment with A549, with HL-60 and with RPMI-8226 was > 100 µM (inactive) each time. In addition, the GI50 with A498, with RXF 393, in the experiment on KM12, with OVCAR-5, in the experiment with BT-549 and with SK-OV-3 was > 100 µM (inactive) in each case. The GI50 in the experiment on PC-3 is > 100 µM (inactive).

`COc1ccc(C2CCc3c(cnc4nc(N)nc(N)c34)C2)cc1` (stereo not drawn): the GI50 in the experiment with K562 was 0.83 µM (active); in the experiment on HOP-92, 2.38 µM (inactive); in the experiment with NCI-H460, 4.89 µM (inactive); in the experiment on HOP-62, 20.5 µM (inactive); in the experiment on TK-10 it was 12.8 µM (inactive); in the experiment with ACHN, 8.28 µM (inactive). Moreover, the GI50 in the experiment with SF-268 is 12.9 µM (inactive); in the experiment with LOX IMVI it was 0.968 µM (active); with NCI-H226, > 100 µM (inactive); in the experiment on A549, 6.43 µM (inactive); in the experiment with HL-60 it was 6.28 µM (inactive); with RPMI-8226, > 100 µM (inactive). For the same molecule, the GI50 in the experiment on A498 is 38.4 µM (inactive); in the experiment on RXF 393, 16.8 µM (inactive); with KM12, > 100 µM (inactive); with OVCAR-5 it was 13.9 µM (inactive); in the experiment with BT-549, 44.7 µM (inactive); with SK-OV-3 it was 18.1 µM (inactive). The GI50 with PC-3 is > 100 µM (inactive).

For `CCCCCCc1nn2c(-c3ccncc3)nnc2s1`, the GI50 in the experiment on K562 is > 10 µM (inactive); in the experiment with HOP-92 it was 8.65 µM (inactive); with NCI-H460 it was > 10 µM (inactive); in the experiment on HOP-62 it was > 10 µM (inactive); in the experiment on TK-10 it was > 10 µM (inactive); in the experiment with ACHN it was > 10 µM (inactive). Further, the GI50 in the experiment with SF-268, in the experiment on LOX IMVI, with NCI-H226, in the experiment on A549, in the experiment with HL-60 and in the experiment on RPMI-8226 was > 10 µM (inactive) throughout. Also, the GI50 in the experiment with A498, with RXF 393, in the experiment with KM12, in the experiment with OVCAR-5, in the experiment with BT-549 and in the experiment with SK-OV-3 was > 10 µM (inactive) in each case. Further, the GI50 in the experiment with PC-3 is > 10 µM (inactive).

On to `CN1CCCC2C(c3ccccc3)C(C3=NCCCC3)C(c3ccccc3)CC21` (stereo not drawn), for which the GI50 in the experiment on K562 is 17.2 µM (inactive); with HOP-92 it was 85.9 µM (inactive); in the experiment on NCI-H460 it was 27.7 µM (inactive); in the experiment with HOP-62 it was > 100 µM (inactive); with TK-10, > 100 µM (inactive); with ACHN, 72.3 µM (inactive). Further, the GI50 is 59.3 µM (inactive) in the experiment on SF-268; 19.5 µM (inactive) with LOX IMVI; > 100 µM (inactive) with NCI-H226; > 100 µM (inactive) in the experiment with A549; 31.8 µM (inactive) with HL-60; 18.4 µM (inactive) in the experiment with RPMI-8226. The GI50 with A498 was 42.6 µM (inactive); in the experiment on RXF 393, 23.4 µM (inactive); with KM12 it was 53.2 µM (inactive); with OVCAR-5 it was > 100 µM (inactive); with BT-549 it was 33.3 µM (inactive); in the experiment on SK-OV-3 it was > 100 µM (inactive). For the same molecule, in the experiment with PC-3, the GI50 is 44.7 µM (inactive).

With `COc1ccc(C(C)NNC(=O)c2ccncc2)c(OC)c1` (stereo not drawn), the GI50 in the experiment on K562 was 93.1 µM (inactive); in the experiment on HOP-92, > 100 µM (inactive); in the experiment on NCI-H460 it was > 100 µM (inactive); in the experiment with HOP-62, > 100 µM (inactive); in the experiment with TK-10, > 100 µM (inactive); in the experiment on ACHN, > 100 µM (inactive). Besides, the GI50 in the experiment with SF-268, in the experiment with LOX IMVI, in the experiment with NCI-H226, in the experiment with A549, in the experiment with HL-60 and with RPMI-8226 was > 100 µM (inactive) throughout. The GI50 with A498, in the experiment with RXF 393, with KM12, in the experiment on OVCAR-5, with BT-549 and in the experiment with SK-OV-3 was > 100 µM (inactive) each time. Besides, in the experiment with PC-3, the GI50 was > 100 µM (inactive).

`CC(=O)OCC1OC(O[C@@H]2C[C@H]3C(C)(C)[C@H](OC(C)=O)CC[C@]3(C)[C@H]3CC[C@@]45C[C@H](O)C[C@H](C)[C@@H]4CC=C5[C@@]32C)C(O)C(O)C1O` (stereo partly drawn): the GI50 in the experiment with K562 was 2.61 µM (inactive); in the experiment with HOP-92, 4.01 µM (inactive); in the experiment with NCI-H460 it was 3.26 µM (inactive); in the experiment on HOP-62, 9.53 µM (inactive); in the experiment on TK-10, 8.93 µM (inactive); in the experiment on ACHN, 6.05 µM (inactive). Besides, the GI50 was 4.01 µM (inactive) with SF-268; 1.98 µM (inactive) in the experiment with LOX IMVI; 4.37 µM (inactive) in the experiment on NCI-H226; 4.59 µM (inactive) with A549; 1.84 µM (inactive) in the experiment with HL-60; 2.42 µM (inactive) in the experiment on RPMI-8226. The GI50 with A498 was 6.67 µM (inactive); with RXF 393 it was 2.11 µM (inactive); in the experiment with KM12, 2.38 µM (inactive); with OVCAR-5, 2.18 µM (inactive); in the experiment on BT-549, 5.3 µM (inactive); in the experiment with SK-OV-3, 9.12 µM (inactive). Moreover, in the experiment with PC-3, the GI50 is 3.03 µM (inactive).

On to `COc1ccc(C(SCC(N)C(=O)O)(c2ccc(OC)cc2)c2ccc(OC)cc2)cc1` (stereo not drawn), for which the GI50 in the experiment with K562 is 10 µM (inactive); with HOP-92 it was 14.7 µM (inactive); with NCI-H460, 11.3 µM (inactive); in the experiment with HOP-62, 13 µM (inactive); in the experiment with TK-10 it was 14.9 µM (inactive); with ACHN it was 12 µM (inactive). In addition, the GI50 is 13.4 µM (inactive) with SF-268; 9.02 µM (inactive) in the experiment on LOX IMVI; 13.2 µM (inactive) in the experiment with NCI-H226; 17.1 µM (inactive) in the experiment with A549; 14 µM (inactive) in the experiment on HL-60; 15.9 µM (inactive) in the experiment on RPMI-8226. Also, the GI50 in the experiment with A498 was 14.7 µM (inactive); in the experiment with RXF 393, 8.47 µM (inactive); with KM12 it was 6.32 µM (inactive); in the experiment with OVCAR-5, 13.9 µM (inactive); in the experiment with BT-549 it was 12.8 µM (inactive); in the experiment on SK-OV-3, 21.2 µM (inactive). For the same molecule, the GI50 in the experiment with PC-3 was 11.1 µM (inactive).

For `C[n+]1cccc2ccc3cccnc3c21`, the GI50 is > 100 µM (inactive) with K562; 57.7 µM (inactive) in the experiment on HOP-92; 23.2 µM (inactive) in the experiment with NCI-H460; 19.5 µM (inactive) with HOP-62; 27.5 µM (inactive) in the experiment on TK-10; 20.9 µM (inactive) with ACHN. For the same molecule, the GI50 was 17.6 µM (inactive) with SF-268; 29 µM (inactive) in the experiment on LOX IMVI; 20.6 µM (inactive) with NCI-H226; 5.64 µM (inactive) with A549; > 100 µM (inactive) in the experiment on HL-60; 4.91 µM (inactive) in the experiment on RPMI-8226. Moreover, the GI50 was 32.5 µM (inactive) with A498; 46.3 µM (inactive) with RXF 393; 9.08 µM (inactive) in the experiment with KM12; 82 µM (inactive) with OVCAR-5; 31.7 µM (inactive) with BT-549; 47.6 µM (inactive) in the experiment on SK-OV-3. Moreover, the GI50 in the experiment on PC-3 was 27.5 µM (inactive).

For `CC1=NN(C(=O)CC(=O)Nc2cccc(C)c2)C(=O)C1/N=N\c1ccc(S(=O)(=O)c2ccc(/N=N/C3C(=O)N(C(=O)CC(=O)Nc4cccc(C)c4)N=C3C)cc2)cc1` (stereo not drawn), the GI50 with K562, in the experiment on HOP-92, in the experiment on NCI-H460, in the experiment on HOP-62, with TK-10 and in the experiment with ACHN was > 100 µM (inactive) throughout. Further, the GI50 in the experiment on SF-268, in the experiment with LOX IMVI, in the experiment on NCI-H226, in the experiment with A549, in the experiment with HL-60 and with RPMI-8226 was > 100 µM (inactive) throughout. In addition, the GI50 in the experiment with A498, with RXF 393, with KM12, with OVCAR-5, in the experiment on BT-549 and in the experiment with SK-OV-3 was > 100 µM (inactive) throughout. In addition, the GI50 in the experiment on PC-3 is > 100 µM (inactive).
